Inconclusive results and toxic doses are left out. Rule for the calls: active = survival T/C of 150% or more; inactive = T/C below 125% in these data.
Test system: CD2F1 mice, L1210 leukemia ip, survival T/C
Assay: NCI In Vivo Anticancer Drug Screen. Data for tumor model L1210 Leukemia (intraperitoneal) in CD2F1 (CDF1) mice
Settings: higher = longer survival
How it was run: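 Each value reflects a quotient of treated over vehicle control outcomes in mice with a transplanted tumor.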

[1] = endpoint: mean survival time, dose: 100.0 mg/kg/injection, schedule: Q01DX009 (ip), vehicle: saline with Tween-80
[2] = endpoint: mean survival time, dose: 200.0 mg/kg/injection, schedule: Q01DX009 (ip), vehicle: saline with Tween-80
[3] = endpoint: mean survival time, dose: 400.0 mg/kg/injection, schedule: Q01DX009 (ip), vehicle: saline with Tween-80
[4] = endpoint: mean survival time, dose: 100.0 mg/kg/injection, schedule: Q04DX003 (ip), vehicle: saline with Tween-80
[5] = endpoint: mean survival time, dose: 200.0 mg/kg/injection, schedule: Q04DX003 (ip), vehicle: saline with Tween-80
[6] = endpoint: mean survival time, dose: 400.0 mg/kg/injection, schedule: Q04DX003 (ip), vehicle: saline with Tween-80
[7] = endpoint: mean survival time, dose: 100.0 mg/kg/injection, schedule: Q01DX001 (ip), vehicle: saline with Tween-80
[8] = endpoint: mean survival time, dose: 200.0 mg/kg/injection, schedule: Q01DX001 (ip), vehicle: saline with Tween-80
[9] = endpoint: mean survival time, dose: 400.0 mg/kg/injection, schedule: Q01DX001 (ip), vehicle: saline with Tween-80
[10] = endpoint: mean survival time, dose: 50.0 mg/kg/injection, schedule: Q01DX009 (ip), vehicle: saline
[11] = endpoint: mean survival time, dose: 100.0 mg/kg/injection, schedule: Q01DX009 (ip), vehicle: saline
[12] = endpoint: mean survival time, dose: 200.0 mg/kg/injection, schedule: Q01DX009 (ip), vehicle: saline

Measured: T/C

O=C1c2ccccc2C(=O)c2cc(S(=O)(=O)O)ccc21
inactive: endpoint: mean survival time, dose: 100.0 mg/kg/injection, schedule: Q01DX001 (ip), vehicle: Klucel (hydroxypropylcellulose) (HPC) 104 % of control | [1] 98 % of control | endpoint: mean survival time, dose: 200.0 mg/kg/injection, schedule: Q01DX001 (ip), vehicle: Klucel (hydroxypropylcellulose) (HPC) 96 % of control | [2] 90 % of control | endpoint: mean survival time, dose: 400.0 mg/kg/injection, schedule: Q01DX001 (ip), vehicle: Klucel (hydroxypropylcellulose) (HPC) 104 % of control | [3] 90 % of control

CN(C)C(=S)SCc1ccccc1
inactive: endpoint: mean survival time, dose: 100.0 mg/kg/injection, schedule: Q04DX003 (ip), vehicle: other 111 % of control | endpoint: mean survival time, dose: 200.0 mg/kg/injection, schedule: Q04DX003 (ip), vehicle: other 103 % of control | endpoint: mean survival time, dose: 400.0 mg/kg/injection, schedule: Q04DX003 (ip), vehicle: other 112 % of control

CCOC(=O)Nc1cc([N+](C)(C)C)ccc1OCCOc1ccc([N+](C)(C)C)cc1
inactive: endpoint: mean survival time, dose: 0.15 mg/kg/injection, schedule: Q04DX003 (ip), vehicle: Klucel (hydroxypropylcellulose) (HPC) 100 % of control | endpoint: mean survival time, dose: 0.3 mg/kg/injection, schedule: Q04DX003 (ip), vehicle: Klucel (hydroxypropylcellulose) (HPC) 90 % of control | endpoint: mean survival time, dose: 0.6 mg/kg/injection, schedule: Q04DX003 (ip), vehicle: Klucel (hydroxypropylcellulose) (HPC) 100 % of control

O=C1OCC/C1=C\c1cccc2ccccc12
inactive: [4] 102 % of control | [5] 96 % of control | [6] 97 % of control

COc1ccc(CC2(C#N)c3ccccc3C=CN2C(=O)c2ccccc2)c([N+](=O)[O-])c1OC (stereo unspecified)
inactive: [7] 95 % of control | [8] 97 % of control | [9] 95 % of control

Cn1c(=O)[nH]c2c(c1=O)CCO2
inactive: endpoint: mean survival time, dose: 100.0 mg/kg/injection, schedule: Q01DX001 (ip), vehicle: saline 103 % of control | endpoint: mean survival time, dose: 200.0 mg/kg/injection, schedule: Q01DX001 (ip), vehicle: saline 97 % of control | endpoint: mean survival time, dose: 400.0 mg/kg/injection, schedule: Q01DX001 (ip), vehicle: saline 100 % of control

COC(=O)C1CCCCCC1=O (stereo unspecified)
inactive: [4] 96 % of control | [5] 94 % of control | [6] 88 % of control

O=P1(OCCCCCl)NCCCO1 (stereo unspecified)
inactive: endpoint: mean survival time, dose: 62.5 mg/kg/injection, schedule: Q01DX001 (ip), vehicle: water 103 % of control | endpoint: mean survival time, dose: 125.0 mg/kg/injection, schedule: Q01DX001 (ip), vehicle: water 104 % of control | endpoint: mean survival time, dose: 250.0 mg/kg/injection, schedule: Q01DX001 (ip), vehicle: water 103 % of control | endpoint: mean survival time, dose: 500.0 mg/kg/injection, schedule: Q01DX001 (ip), vehicle: water 108 % of control | endpoint: mean survival time, dose: 750.0 mg/kg/injection, schedule: Q01DX001 (ip), vehicle: water 101 % of control

O=C1CSC(=S)N1/N=C/c1cc(Cl)cc(Cl)c1O
inactive: endpoint: mean survival time, dose: 75.0 mg/kg/injection, schedule: Q01DX001 (ip), vehicle: other 90 % of control | endpoint: mean survival time, dose: 150.0 mg/kg/injection, schedule: Q01DX001 (ip), vehicle: other 102 % of control

O=C1c2cc(Cl)ccc2OCC1Cl (stereo unspecified)
inactive: [7] 87 % of control | [8] 91 % of control | [9] 93 % of control

CSCc1cn(C2CC(O)C(CO)O2)c(=O)[nH]c1=O (stereo unspecified)
inactive: endpoint: mean survival time, dose: 12.5 mg/kg/injection, schedule: Q01DX005 (ip), vehicle: water 95 % of control | endpoint: mean survival time, dose: 25.0 mg/kg/injection, schedule: Q01DX005 (ip), vehicle: water 98 % of control | endpoint: mean survival time, dose: 50.0 mg/kg/injection, schedule: Q01DX005 (ip), vehicle: water 98 % of control | endpoint: mean survival time, dose: 100.0 mg/kg/injection, schedule: Q01DX005 (ip), vehicle: water 95 % of control | endpoint: mean survival time, dose: 200.0 mg/kg/injection, schedule: Q01DX005 (ip), vehicle: water 95 % of control

OC1CC2CCC(C1)N2CCCN1c2ccccc2Sc2ccc(Cl)cc21 (stereo unspecified)
inactive: endpoint: mean survival time, dose: 7.5 mg/kg/injection, schedule: Q01DX009 (ip), vehicle: saline 91 % of control | endpoint: mean survival time, dose: 15.0 mg/kg/injection, schedule: Q01DX009 (ip), vehicle: saline 98 % of control | endpoint: mean survival time, dose: 18.0 mg/kg/injection, schedule: Q04DX003 (ip), vehicle: saline with Tween-80 99 % of control | endpoint: mean survival time, dose: 27.0 mg/kg/injection, schedule: Q04DX003 (ip), vehicle: saline with Tween-80 94 % of control | endpoint: mean survival time, dose: 30.0 mg/kg/injection, schedule: Q01DX009 (ip), vehicle: saline 109 % of control | endpoint: mean survival time, dose: 40.0 mg/kg/injection, schedule: Q04DX003 (ip), vehicle: saline with Tween-80 103 % of control | endpoint: mean survival time, dose: 60.0 mg/kg/injection, schedule: Q04DX003 (ip), vehicle: saline with Tween-80 123 % of control

Cc1ccc(Nc2nc(N)nc3nc(N)c(C(N)=O)nc23)cc1C
inactive: endpoint: mean survival time, dose: 12.5 mg/kg/injection, schedule: Q04DX002 (ip), vehicle: Klucel (hydroxypropylcellulose) (HPC) 91 % of control | endpoint: mean survival time, dose: 25.0 mg/kg/injection, schedule: Q04DX002 (ip), vehicle: Klucel (hydroxypropylcellulose) (HPC) 86 % of control | endpoint: mean survival time, dose: 50.0 mg/kg/injection, schedule: Q04DX002 (ip), vehicle: Klucel (hydroxypropylcellulose) (HPC) 91 % of control

Cn1cnc([N+](=O)[O-])c1Sc1ncn[nH]1
inactive: endpoint: mean survival time, dose: 12.5 mg/kg/injection, schedule: Q01DX009 (ip), vehicle: saline 104 % of control | endpoint: mean survival time, dose: 12.5 mg/kg/injection, schedule: Q01DX009 (ip), vehicle: suspension in saline 101 % of control | endpoint: mean survival time, dose: 25.0 mg/kg/injection, schedule: Q01DX009 (ip), vehicle: saline 107 % of control | endpoint: mean survival time, dose: 25.0 mg/kg/injection, schedule: Q01DX009 (ip), vehicle: suspension in saline 104 % of control | [10] 104 % of control | endpoint: mean survival time, dose: 50.0 mg/kg/injection, schedule: Q01DX009 (ip), vehicle: suspension in saline 104 % of control | [11] 102 % of control | endpoint: mean survival time, dose: 100.0 mg/kg/injection, schedule: Q01DX009 (ip), vehicle: suspension in saline 106 % of control | [12] 107 % of control | endpoint: mean survival time, dose: 400.0 mg/kg/injection, schedule: Q01DX009 (ip), vehicle: saline 104 % of control

CC1(CCOC2CCCCO2)NC(=O)NC1=O (stereo unspecified)
inactive: endpoint: mean survival time, dose: 100.0 mg/kg/injection, schedule: Q01DX001 (ip), vehicle: saline sonified 102 % of control | [1] 112 % of control | endpoint: mean survival time, dose: 200.0 mg/kg/injection, schedule: Q01DX001 (ip), vehicle: saline sonified 100 % of control | [2] 103 % of control | endpoint: mean survival time, dose: 400.0 mg/kg/injection, schedule: Q01DX001 (ip), vehicle: saline sonified 100 % of control | [3] 103 % of control

C=CCC(C)C(C)C (stereo unspecified)
inactive: [10] 96 % of control | [11] 100 % of control | [12] 100 % of control

O=C(Nc1ccc2c3c(ccc(C(=O)O)c13)CC2)c1ccccc1
inactive: [4] 97 % of control | [5] 95 % of control | [6] 104 % of control

O=c1[nH]c(=S)c(SCc2ccccc2)nn1C1OC(COP(=O)(O)O)C(O)C1O (stereo unspecified)
inactive: endpoint: median survival time, dose: 5.63 mg/kg/injection, schedule: Q01DX005 (ip), vehicle: water 98 % of control | endpoint: median survival time, dose: 11.25 mg/kg/injection, schedule: Q01DX005 (ip), vehicle: water 98 % of control | endpoint: median survival time, dose: 22.5 mg/kg/injection, schedule: Q01DX005 (ip), vehicle: water 102 % of control | endpoint: median survival time, dose: 45.0 mg/kg/injection, schedule: Q01DX005 (ip), vehicle: water 105 % of control | endpoint: median survival time, dose: 90.0 mg/kg/injection, schedule: Q01DX005 (ip), vehicle: water 103 % of control
